What was measured:
Assay in all cases: relative viability (nuclei count vs DMSO), 5 days (fraction); higher = more cells survive
[1] = compound: COC1=C(C=C(C=C1)C2=CC3=NC=CN3C(=N2)NC4=C(C=CC=N4)C(=O)N)OC [BAY61-3606] + C[C@]1(O)C[C@@H](c2nc(-c3ccc4ccc(-c5ccccc5)nc4c3)c3c(N)nccn32)C1 [Linsitinib] (partner 1 µM)
Procedure, shortened: (§1)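 For relative viability, nuclei counts in treated wells were divided by those in vehicle wells. Lung cancer cell lines had been pin-tool dosed in 1536-well plates the day after seeding and cultured for 5 days, then fixed and stained in one step (final 0.05% Triton X-100, 1% formaldehyde, 1 ug/ml Hoechst) and imaged at 4×. Doses were one drug alone or a fixed anchor-drug dose plus five library-drug doses (not always all listed) in √10 steps, and values are duplicate-plate medians.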

[2] = compound: COc1cccc2c1C(=O)c1c(O)c3c(c(O)c1C2=O)C[C@@](O)(C(=O)CO)C[C@@H]3O[C@H]1C[C@H](N)[C@H](O)[C@H](C)O1 [Doxorubicin] + Nc1nc2[nH]cc(CCc3ccc(C(=O)N[C@@H](CCC(=O)O)C(=O)O)cc3)c2c(=O)[nH]1 [Pemetrexed] (partner 0.2 µM)
Procedure, shortened: as §1

[3] = compound: COc1cccc2c1C(=O)c1c(O)c3c(c(O)c1C2=O)C[C@@](O)(C(=O)CO)C[C@@H]3O[C@H]1C[C@H](N)[C@H](O)[C@H](C)O1 [Doxorubicin] + C[C@@H](Oc1cc(-c2cnn(C3CCNCC3)c2)cnc1N)c1c(Cl)ccc(F)c1Cl [Crizotinib] (partner 1 µM)
Procedure, shortened: as §1

[4] = compound: COc1cccc2c1C(=O)c1c(O)c3c(c(O)c1C2=O)C[C@@](O)(C(=O)CO)C[C@@H]3O[C@H]1C[C@H](N)[C@H](O)[C@H](C)O1 [Doxorubicin] + O=C(c1cc(Cc2n[nH]c(=O)c3ccccc23)ccc1F)N1CCN(C(=O)C2CC2)CC1 [Olaparib] (partner 8 µM)
Procedure, shortened: as §1

Cell Line	relative viability ([1]; first compound 0.02 µM)	relative viability ([1]; first compound 0.06325 µM)	relative viability ([1]; first compound 0.2 µM)	relative viability ([1]; first compound 0.6325 µM)	relative viability ([1]; first compound 2 µM)	relative viability ([2]; first compound 0.001 µM)	relative viability ([2]; first compound 0.003162 µM)	relative viability ([2]; first compound 0.01 µM)	relative viability ([2]; first compound 0.03162 µM)	relative viability ([2]; first compound 0.1 µM)	relative viability ([3]; first compound 0.001 µM)	relative viability ([3]; first compound 0.003162 µM)	relative viability ([3]; first compound 0.01 µM)	relative viability ([3]; first compound 0.03162 µM)	relative viability ([3]; first compound 0.1 µM)	relative viability ([4]; first compound 0.001 µM)	relative viability ([4]; first compound 0.003162 µM)	relative viability ([4]; first compound 0.01 µM)	relative viability ([4]; first compound 0.03162 µM)	relative viability ([4]; first compound 0.1 µM)
NCI-H1993	0.688	0.748	0.723	0.7	0.741	0.603	0.685	0.58	0.57	0.528	1.08	0.812	0.839	0.721	0.822	0.0056	0.942	1.03	0.817	0.962
CAL-12T	0.903	0.755	0.818	0.85	0.388	1.1	1.22	1.03	0.38	0.248	0.671	0.507	0.566	0.182	0.116	0.7	0.668	0.559	0.212	0.191
NCI-H2170	–	–	–	–	–	0.248	0.265	0.32	0.252	0.274	1.25	1.46	1.23	1.03	1.32	0.617	0.735	0.633	0.602	0.704
Calu-6	0.977	1.02	0.893	0.901	0.759	–	–	–	–	–	0.776	0.708	0.52	0.229	0.171	0.554	0.536	0.457	0.298	0.197
EBC-1	1.02	0.91	0.835	0.949	0.628	–	–	–	–	–	0.222	0.189	0.179	0.177	0.164	0.682	0.735	0.73	0.54	0.284
IA-LM	0.52	0.573	0.559	0.662	0.354	–	–	–	–	–	0.604	0.914	0.564	0.376	0.113	0.796	0.889	0.954	0.754	0.673
NCI-H1299	0.977	1.03	0.994	1	0.89	–	–	–	–	–	0.952	0.981	0.939	0.874	0.49	0.937	0.949	0.952	0.942	0.753
NCI-H1703	0.596	0.389	0.842	0.808	0.341	–	–	–	–	–	0.578	0.789	0.365	0.179	0.0887	0.377	0.332	0.309	0.222	0.177
ChaGo-K-1	–	–	–	–	–	0.264	0.254	0.231	0.259	0.273	1.15	1.01	0.98	0.45	0.378	0.437	0.408	0.352	0.486	0.442
NCI-H2342	–	–	–	–	–	0.802	0.843	0.761	0.711	0.818	–	–	–	–	–	0.41	0.525	0.445	0.371	0.384
SW 900	–	–	–	–	–	–	0.461	0.465	0.498	0.412	–	–	–	–	–	–	1.16	0.894	0.674	0.868
NCI-H727	0.258	0.184	0.386	0.188	0.354	–	–	–	–	–	0.817	1.01	0.787	0.677	0.578	0.821	0.811	–	0.768	0.753
NCI-H1793	0.797	0.892	1	1.27	0.89	–	1.11	0.904	0.617	0.784	–	–	–	–	–	–	0.93	0.759	0.566	0.88
NCI-H1563	1.37	1.42	1.2	1.12	1.03	0.734	0.825	0.838	0.777	0.536	0.826	0.728	0.584	0.522	0.447	–	–	–	–	–
NCI-H1648	–	–	–	–	–	0.756	0.746	0.724	0.695	0.632	–	–	–	–	–	0.618	1.05	0.5	0.492	0.791
NCI-H522	–	–	–	–	–	0.949	1.02	1.16	0.844	0.878	–	–	–	–	–	0.524	0.658	0.678	0.638	0.589
NCI-H1395	1.39	0.989	1.1	1.1	0.888	0.887	1.02	1.08	0.7	0.537	–	–	–	–	–	0.445	0.506	0.466	0.417	0.4
A549	0.765	0.63	0.642	0.77	0.588	–	–	–	–	–	0.774	0.634	0.419	0.0759	0.0405	–	0.437	0.375	0.275	0.264
NCI-H1650	–	–	–	–	–	0.37	0.374	0.381	0.242	0.19	0.925	0.903	0.283	0.181	0.13	0.764	0.865	0.401	0.179	0.127
ABC-1	0.774	0.948	0.879	0.827	0.631	–	–	–	–	–	1.09	1.28	0.804	0.294	0.209	0.946	0.761	0.723	0.525	0.306
